Assay results from ChEMBL document CHEMBL6153094, “Rationally designed highly amphipathic antimicrobial peptides demonstrating superior bacterial selectivity relative to the corresponding α-helix peptide” (Eur J Med Chem, 2025).
Active and inactive are the calls of the source. The calls are words filed in the database; no cut-off is given here.

How the values were obtained:
Pseudomonas aeruginosa [1] = assay: Antibiofilm activity in Pseudomonas aeruginosa ATCC 27853 assessed as inhibition of biofilm formation at 1/2 times of MIC incubated for 24 hrs by crystal violet staining based analysis; type: functional, organism-based
Cell membrane [2] = assay: Induction of inner membrane permeabilization in Escherichia coli ML-35 ATCC 43837 assessed as increase in […] measured for 135 mins by ONPG based analysis; type: subcellular
Staphylococcus aureus [3] = assay: Antibiofilm activity in Staphylococcus aureus ATCC 25923 assessed as inhibition of biofilm formation at 2 times of MIC incubated for 24 hrs by crystal violet staining based analysis relative to control; type: functional
Pseudomonas aeruginosa [4] = assay: Antimicrobial activity against multi-drug resistant Pseudomonas aeruginosa clinical isolate 86 assessed as concentration required to eliminate 90% bacteria incubated for 18 hrs by broth-microdilution method; type: functional
Staphylococcus aureus [5] = assay: Bactericidal activity against Staphylococcus aureus ATCC 25923 at 2 times of MIC incubated for 18 hrs in presence of 20 microg/ml of trypsin by absorbance based assay; type: functional, organism-based
Staphylococcus aureus [6] = assay: Bactericidal activity against Staphylococcus aureus ATCC 25923 assessed as bacterial killing at 1 to 4 times of MIC by time-kill kinetics assay; type: functional, organism-based; settings: time <= 360.0 min
[7] = test system: Staphylococcus epidermidis; assay: Antimicrobial activity against Staphylococcus epidermidis ATCC 12228 assessed as inhibition of visible bacterial growth incubated for 18 hrs by broth-dilution method; type: functional
Staphylococcus aureus [8] = assay: Antibacterial activity against Staphylococcus aureus ATCC 25923 assessed as fold change in MIC incubated for 18 hrs in presence of 5% serum by broth microdilution method; type: functional
Pseudomonas aeruginosa [9] = assay: Antibacterial activity against Pseudomonas aeruginosa ATCC 27853 assessed as fold change in MIC incubated for 18 hrs in presence of KCl by Mueller-Hinton broth based assay; type: functional
Staphylococcus aureus [10] = assay: Bactericidal activity against Staphylococcus aureus ATCC 25923 assessed as bacterial eradication at 4 times of MIC measured within 30 mins by time-kill kinetics assay; type: functional, organism-based
Pseudomonas aeruginosa [11] = assay: Induction of morphological changes in Pseudomonas aeruginosa ATCC 27853 assessed as cell adhesion at 2 times of MIC incubated for 30 to 120 mins by SEM analysis; type: functional, organism-based; settings: time 30-120 min
Staphylococcus aureus [12] = assay: Antibacterial activity against methicillin-resistant Staphylococcus aureus ATCC 33591 infected in male Balb/c mouse model of full thickness skin wound assessed as reduction in bacteria in skin wound at 1 mg/ml pre-infected with bacteria for 1 hrs followed by compound administration at 1,12 and 36 hrs post infection and measured after 10 days by photographic analysis; type: functional, organism-based; settings: time 10.0 day
Pseudomonas aeruginosa [13] = assay: Resistance fold, ratio of MIC for Pseudomonas aeruginosa ATCC 27853 measured after 20 passages in presence of gentamicin to MIC for Pseudomonas aeruginosa ATCC 27853 measured immediately in presence of gentamicin; type: functional
Escherichia coli = assay: Antimicrobial activity against Escherichia coli ATCC 25922 assessed as inhibition of visible bacterial growth incubated for 18 hrs by broth microdilution method; type: functional
Pseudomonas aeruginosa [14] = assay: Antibacterial activity against Pseudomonas aeruginosa ATCC 27853 assessed as inhibition of bacterial growth compound pretreated with 256 microg/ml of LPS for 1 hrs followed by bacterial addition and measured after 18 hrs by absorbance based assay; type: functional, organism-based
Staphylococcus aureus [15] = assay: Resistance fold, ratio of MIC for Staphylococcus aureus ATCC 25923 measured after 20 passages to MIC for Staphylococcus aureus ATCC 25923 measured immediately; type: functional
[16] = Toxicity in male Balb/c mouse assessed as lethal dose administered intraperitoneally for 7 days; settings: in vivo, route ip, time 7 day
[17] = Toxicity in male Balb/c mouse assessed as mortality at 80 mg/kg, ip measured after 7 days relative to control; type: organism-based; settings: in vivo, time 7 day
Cell membrane [18] = assay: Disruption of outer membrane integrity in Pseudomonas aeruginosa ATCC 27853 assessed as increase in fluorescence intensity at 2 times of MIC measured for 12 mins by NPN uptake assay; type: subcellular
Pseudomonas aeruginosa [19] = assay: Antibacterial activity against Pseudomonas aeruginosa ATCC 27853 incubated for 18 hrs in presence of 10% serum by broth microdilution method; type: functional, organism-based
Klebsiella pneumoniae [20] = assay: Antibacterial activity against Klebsiella pneumoniae ATCC 700603 infected in male Balb/c mouse model of pneumonia assessed as decrease in decrease in IL-6 level in lung at 2.5 to 10 mg/kg, ip administered at 4 and 12 hrs post-infected and measured after 24 hrs by ELISA; type: functional, organism-based; settings: dose 2.5-10 mg/kg, time 20.0 hrs
Staphylococcus aureus [21] = assay: Antimicrobial activity against methicillin-drug resistant Staphylococcus aureus clinical isolate 2 assessed as concentration required to eliminate 90% bacteria incubated for 18 hrs by broth-microdilution method; type: functional
Staphylococcus aureus [22] = assay: Bactericidal activity against Staphylococcus aureus ATCC 25923 at 2 times of MIC incubated for 18 hrs in presence of 20 microg/ml of chymotrypsin by absorbance based assay; type: functional, organism-based
Pseudomonas aeruginosa [23] = assay: Antimicrobial activity against gentamicin-resistant Pseudomonas aeruginosa ATCC 27853 assessed as inhibition of visible bacterial growth incubated for 18 hrs by broth microdilution method; type: functional
Staphylococcus aureus [24] = assay: Bactericidal activity against Staphylococcus aureus ATCC 25923 assessed as bacterial eradication at 2 times of MIC measured after 90 mins by time-kill kinetics assay; type: functional, organism-based
Klebsiella pneumoniae [25] = assay: Antimicrobial activity against Klebsiella pneumoniae ATCC 700603 assessed as inhibition of visible bacterial growth incubated for 18 hrs by broth microdilution method; type: functional
Staphylococcus aureus [26] = assay: Antimicrobial activity against gentamicin-resistant Staphylococcus aureus ATCC 25923 assessed as inhibition of visible bacterial growth incubated for 18 hrs by broth-dilution method; type: functional
Pseudomonas aeruginosa [27] = assay: Antibacterial activity against Pseudomonas aeruginosa ATCC 27853 assessed as fold change in MIC incubated for 18 hrs in presence of 2.5% serum by broth microdilution method; type: functional
Staphylococcus aureus [28] = assay: Synergistic antimicrobial activity against gentamicin-resistant Staphylococcus aureus ATCC 25923 assessed as fractional inhibitory concentration index incubated for 18 hrs in presence of gentamicin by checkerboard microdilution method; type: functional
Staphylococcus aureus [29] = assay: Antibacterial activity against Staphylococcus aureus ATCC 25923 assessed as fold change in MIC incubated for 18 hrs in presence of KCl by Mueller-Hinton broth based assay; type: functional

Substance: H-RRWFRRWRRWFR-NH2
- Activity (Pseudomonas aeruginosa [1]): inactive
- Activity (Cell membrane [2]): Active; Lower Concentration Of Compound Is Sufficient To Disrupt Inner Membrane
- inhibition (INH) (Staphylococcus aureus [3]): ~75%
- EC90 (Pseudomonas aeruginosa [4]): 574 nM
- Activity (Staphylococcus aureus [5]): inactive
- Activity (Staphylococcus aureus [6]): Time-dependent-effect
- MIC [7]: 1 µM
- fold change (FC) (Staphylococcus aureus [8]): 128
- fold change (FC) (Pseudomonas aeruginosa [9]): 2
- Activity (Staphylococcus aureus [10]): Active
- Activity (Pseudomonas aeruginosa [11]): Active
- Activity (Staphylococcus aureus [12]): Active; Obvious Facilitation Of Wound Healing Not Observed
- fold change (FC) (Pseudomonas aeruginosa [13]): <=2
- MIC (Escherichia coli): 4 µM
- Activity (Pseudomonas aeruginosa [14]): Not active; Compound Binds To Lps To Exert Its Activity
- fold change (FC) (Staphylococcus aureus [15]): <=2
- LD50 at 168 h [16]: 89.9 mg/kg
- mortality at 168 h [17]: 25%
- Activity (Cell membrane [18]): Active
- Activity (Pseudomonas aeruginosa [19]): inactive
- Activity (Klebsiella pneumoniae [20]): inactive
- EC90 (Staphylococcus aureus [21]): 2860 nM
- Activity (Staphylococcus aureus [22]): inactive
- MIC (Pseudomonas aeruginosa [23]): 2 µM
- Activity (Staphylococcus aureus [24]): Active
- MIC (Klebsiella pneumoniae [25]): 4 µM
- MIC (Staphylococcus aureus [26]): 4 µM
- fold change (FC) (Pseudomonas aeruginosa [27]): 32
- fractional inhibitory concentration index (FICI) (Staphylococcus aureus [28]): 0.25
- fold change (FC) (Staphylococcus aureus [29]): 2
